Data on two molecules can be found in patent publication US10413517B2, “Composition and method for the treatment of neurological diseases and cerebral injury” (UNIVERSITY OF NOTRE DAME DU LAC, priority 2014, dated 2019).

SMILES strings stand for the structures.

The test system of data set [1] is Npc1^nmf164 fibroblasts. Put plainly: Filipin staining of cholesterol in cultured mouse skin fibroblasts. The data set is classed as cell-based. The settings on record: 5 μM Vo for 48 hrs. The protocol: Ear pinna was cleaned with 70% alcohol and 2-3 small pieces (3×3 mm) were chopped and placed in 70% alcohol for 2 min and transferred to DMEM. Tissues were cut into small pieces and 2 ml of 0.25% trypsin were added, vigorously vortexed for 2 min and incubated at 37° C. with vortexing every 10 min. Trypsin was inactivated by adding 2 ml of culture media (DMEM+10%FBS). Cells were collected by spin (1000 rpm for 5 min), and were grown in DMEM+10% FBS in the presence penicillin (50 U/ml) and streptomycin (50 μg/ml). For treatment with vorinostat, fibroblasts (4×10^4) were plated in 24 well plate containing glass slide. Npc1^nmf164 fibroblasts were treated with 5 μM vorinostat for 48 hrs. Cells incubated with 0.025% DMSO served as vehicle control. Cells were fixed with 4% paraformaldehyde followed by incubation with filipin (100 μg/ml) to stain cholesterol. Slides were mounted using Vectashield (Vector laboratories) and processed for fluorescence microscopy.
(§1) Tissue sections after IFA and filipin stained fibroblasts were visualized with 40× oil-immersion objective lens (NA 1.35). […] Digital image collection were performed using an Olympus IX inverted fluorescence microscope and a Photometrix cooled CCD camera (CH350/LCCD) driven by DeltaVision software from Applied Precision (Seattle, Wash., USA). […] Images were analyzed using ImageJ software (NIH, MD, USA).

Data set [2] relates to CD68, ITGAX, MIP1α and CTSD. Put plainly: qPCR of inflammatory markers in the liver. Particulars: 100 days; Vo 50 mg/Kg; HPBCD 2000 mg/Kg; TCF. It counts as in vivo, mouse. The method, then:
(§2) Vorinostat (50 mg/Kg)—Vorinostat was first dissolved in DMSO (100 mg/ml) and then diluted with 9 volume of Polyethylene Glycol 400 (PEG). This drug solution was named as ‘solution A’. Solution A was diluted with equal volume of water where the final concentration of each component was as follows; Vorinostat, 5 mg/ml; DMSO, 5% and PEG, 45%. Mice were given weekly intraperitoneal (i.p) injections starting at 21 days. Vorinostat (100 mg/Kg)—Vorinostat was first dissolved in DMSO (200 mg/ml) and then mixed with 9 volumes of PEG. Rest of the methods and injections plan were as described above. HPBCD (4000 mg/Kg)—40% HPBCD solution prepared in water. Mice were given weekly i.p injections starting at 7 days. HPBCD (2000 mg/Kg)—20% HPBCD solution prepared in water. Mice were given weekly i.p injections starting at 7 days. TCF (Vorinostat, 50 mg/Kg+HPBCD, 2000 mg/Kg, DMSO, 5%+PEG, 45%)—To prepare the formulation, the ‘solution A’ was first prepared as described above and equal volume of 40% HPBCD solution was slowly layered on top of it. The solution was gently mixed for 10 min at RT on rocker set at medium speed. […]
(§3) Quantitative PCR (qPCR) was performed using Power SYBR Green RNA-to-CT 1-Step Kit and an ABI Prism 7500 Fast real-time PCR system (Applied Biosystems, Grand Island, USA). […] The relative amount of transcript was determined using comparative CT method. […]
For orientation: Quantitative PCR measures a nucleic acid by following its amplification.

The conditions of data set [3]: cited from earlier work.
Data set [4] relates to NPC1 protein. In words: NPC1 immunostaining of Purkinje cells in cerebellar sections. It counts as in vivo, mouse. The settings on record: 100 days old mice. The method, then:
Mice were sacrificed by asphyxiation using CO2. Harvested organs were immersed fixed in 10% neutral buffered formalin (˜4% formaldehyde) for 24 hrs at RT. The organs were subsequently stored in 70% alcohol at RT until transfer to paraffin. Paraffin-embedded tissue sections (4-5 μm) were dewaxed in xylene and alcohol. Calbindin antigen retrieval was done by pre-incubating deparaffinized samples with 0.05% proteinase K (Dako, Germany) in 50 mM Tris-HCl (pH 7.5) for 8 min at RT. CTSS and NPC1 was retrieved by boiling the sections in acidic condition for 30 min. Blocking was done either with 2% goat serum (for calbindin and NPC1) or 2% rabbit serum (for cathepsin S) for 30 min at RT. Sections were incubated with anti-calbindin (1:1000, C9848, Sigma), anti-cathepsin S (20 μg/ml, M-19, Santa Cruz Biotechnology), anti-NPC1 (custom made against human NPC1 protein, 20 μg/ml) overnight at 4° C. […] Vectashield (Vector laboratories) was used as mounting medium and processed for fluorescence microscopy.
as §1

Data set [5] relates to GFAP, MIP1α and CD68. Put plainly: qPCR of inflammatory markers in the brain. The data set is classed as in vivo, mouse. The settings on record: day 100, once weekly dosing. The method, then:
as §2, §3

Turning to `O=C(CCCCCCC(=O)Nc1ccccc1)NO` [vorinostat], the “cholesterol levels in NPC fibroblasts (filipin)” value was “reduced” in data set [1] and “decreased cholesterol levels in NPC cells to those seen in fibroblasts from control” in data set [1] (listed as Vorinostat). Besides, the “inflammatory markers in the liver” value in data set [2] is given as “significant anti-inflammatory activity”. In data set [3], the “solubility in aqueous solution” value is “poorly soluble in aqueous solution”. Further, the “NPC1 staining in Purkinje cells (in words)” value in data set [4] is on record as “Slight staining of NPC1”.

Turning to `CC(O)COC[C@H]1O[C@@H]2O[C@H]3[C@H](O)[C@@H](O)[C@@H](O[C@H]4[C@H](O)[C@@H](O)[C@@H](O[C@H]5[C@H](O)[C@@H](O)[C@@H](O[C@H]6[C@H](O)[C@@H](O)[C@@H](O[C@H]7[C@H](O)[C@@H](O)[C@@H](O[C@H]8[C@H](O)[C@@H](O)[C@@H](O[C@H]1[C@H](O)[C@H]2O)O[C@@H]8COCC(C)O)O[C@@H]7COCC(C)O)O[C@@H]6COCC(C)O)O[C@@H]5COCC(C)O)O[C@@H]4COCC(C)O)O[C@@H]3COCC(C)O` (stereo partly drawn) [HPBCD, 2-Hydroxypropyl-β-cyclodextrin], the “levels of inflammatory markers GFAP, MIP1α and CD68 in the brain” value in data set [5] is “reduced their levels comparably to TCF and better than Vo”.
